Paper PMC6750895 (Journal of Medicinal Chemistry, 2019)
Entries after “also recorded” stand apart in the source; their conditions may differ.

What was measured:
[1] = design: method as in earlier work; conditions: urine; cited from earlier work
IKZF3 = assay: Compound-mediated IKZF3 degradation in OPM-2 cells (western blot); format: cell-based, human; conditions: 24 h
MsCI4 = molecular target: T1, MsCI4 (Magnetospirillum gryphiswaldense, UniProt A4TVL0); assay: FRET-based binding assay with WT MsCI4; conditions: for binding in the FRET assay (in words): WT MsCI4
T1 construct: made in house
T1 sequence (A4TVL0 1-124): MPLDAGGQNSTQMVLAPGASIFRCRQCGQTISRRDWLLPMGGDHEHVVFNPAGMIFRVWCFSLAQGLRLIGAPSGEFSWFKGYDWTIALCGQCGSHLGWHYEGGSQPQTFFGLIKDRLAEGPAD

[2] = Solubility in water or bicarbonate buffer; format: physicochemical
[3] = spontaneous hydrolysis, physiological pH of 7.4; cited from earlier work

Compound | effect on IKZF3 levels / IKZF3 recruitment (in words) (IKZF3) | binding in the FRET assay (in words) (MsCI4) | further results
NC(=O)CCC(C(=O)O)N1C(=O)c2ccccc2C1=O (stereo not shown) [2-phthalimidoglutaramic acid] | – | – | share among urinary metabolites of thalidomide [1]: ~50%
O=C1CC(N2C(=O)c3cccc([N+](=O)[O-])c3C2=O)C(=O)N1 (stereo not shown) [4a, 2-(2,5-Dioxopyrrolidin-3-yl)-4-nitroisoindoline-1,3-dione] | abolish IKZF3 recruitment | binding was observed but could not be quantified | –
O=C1CC(N2C(=O)c3ccc([N+](=O)[O-])cc3C2=O)C(=O)N1 (stereo not shown) [4b, 2-(2,5-Dioxopyrrolidin-3-yl)-5-nitroisoindoline-1,3-dione] | abolish IKZF3 recruitment | – | –
O=C1CCC(N2C(=O)c3cccc([N+](=O)[O-])c3C2=O)C(=O)N1 (stereo not shown) [4c, 2-(2,6-Dioxopiperidin-3-yl)-4-nitroisoindoline-1,3-dione] | abolish IKZF3 recruitment | binding was observed but could not be quantified | –
O=C1CCC(N2C(=O)c3ccc([N+](=O)[O-])cc3C2=O)C(=O)N1 (stereo not shown) [4d, 2-(2,6-Dioxopiperidin-3-yl)-5-nitroisoindoline-1,3-dione] | abolish IKZF3 recruitment | – | –
Nc1cccc2c1C(=O)N(C1CC(=O)NC1=O)C2=O (stereo not shown) [5a, 4-Amino-2-(2,5-dioxopyrrolidin-3-yl)isoindoline-1,3-dione] | significant effects | binding was observed but could not be quantified | –
CC(C)=CC(=O)NC1CC(=O)NC1=O (stereo not shown) [7a, N-(2,5-Dioxopyrrolidin-3-yl)-3-methylbut-2-enamide] | – | binding was observed but could not be quantified | –
O=C1CC(NC(=O)Cc2ccccc2)C(=O)N1 (stereo not shown) [7b, N-(2,5-Dioxopyrrolidin-3-yl)-2-phenylacetamide] | abolished IKZF3 recruitment | binding was observed but could not be quantified | –
O=C1CC(NC(=O)OCc2ccccc2)C(=O)N1 (stereo not shown) [7d, Benzyl (2,5-Dioxopyrrolidin-3-yl)carbamate] | significant effects | – | reduction of IKZF3 levels (IKZF3; 100 μM): about 20%
O=C1CC(NC(=O)c2cc([N+](=O)[O-])cc([N+](=O)[O-])c2)C(=O)N1 (stereo not shown) [7e, N-(2,5-Dioxopyrrolidin-3-yl)-3,5-dinitrobenzamide] | – | binding was observed but could not be quantified; also recorded: affinity was decreased under the detectable levels of the FRET assay | –
O=C(/C=C/c1ccccc1)NC1CC(=O)NC1=O (stereo not shown) [7f, N-(2,5-Dioxopyrrolidin-3-yl)cinnamamide] | significant effects | – | –
O=C1CC(NC(=O)c2sc3ccccc3c2Cl)C(=O)N1 (stereo not shown) [7g, 3-Chloro-N-(2,5-dioxopyrrolidin-3-yl)benzo[b]thiophene-2-carboxamide] | – | binding was observed but could not be quantified | –
NCc1ccc(COC(=O)NC2CC(=O)NC2=O)cc1.O=C(O)C(F)(F)F (stereo not shown) [11a, (4-((((2,5-Dioxopyrrolidin-3-yl)carbamoyl)oxy)methyl)phenyl)methanaminium 2,2,2-Trifluoroacetate] | abolished IKZF3 recruitment | – | solubility in water (in words) [2]: water-soluble
NCc1ccc(COC(=O)NC2CCC(=O)NC2=O)cc1.O=C(O)C(F)(F)F (stereo not shown) [11b, (4-((((2,6-Dioxopiperidin-3-yl)carbamoyl)oxy)methyl)phenyl)methanaminium 2,2,2-Trifluoroacetate] | – | – | Ki (MsCI4): 10 ± 0.8 µM; solubility in water (in words) [2]: water-soluble
O=C(O)CCC(=O)NCc1ccc(COC(=O)NC2CC(=O)NC2=O)cc1 (stereo not shown) [12a, 4-((4-((((2,5-Dioxopyrrolidin-3-yl)carbamoyl)oxy)methyl)benzyl)amino)-4-oxobutanoic Acid] | abolished IKZF3 recruitment | – | –
N[C@H]1CC[C@@H](COC(=O)NC2CC(=O)NC2=O)CC1 (stereo partly shown) [16a] | – | – | Ki (MsCI4): 20 ± 2 µM; solubility in water (in words) [2]: water-soluble
N[C@H]1CC[C@@H](COC(=O)NC2CCC(=O)NC2=O)CC1 (stereo partly shown) [16b] | – | – | Ki (MsCI4): 5 ± 0.5 µM; solubility in water (in words) [2]: water-soluble
O=C1CCC(NC(=O)c2ccccc2C(=O)O)C(=O)N1 (stereo not drawn) [CBG, α-(2-carboxybenzamido)glutarimide, reference compound] | – | – | share among urinary metabolites of thalidomide [1]: ~30%
O=C1CCC(N2C(=O)c3ccccc3C2=O)C(=O)N1 (stereo not shown) [thalidomide] | – | – | half-life [3]: 5.5 to 7.3 h
